Measurements reported in publication PMC9060491, “Biochemical and structural characterization of an aromatic ring–hydroxylating dioxygenase for terephthalic acid catabolism” (Proceedings of the National Academy of Sciences of the …, 2022).
One block for each molecule: values may come before it.

Columns and labels:
[1] = target: T1, terephthalate dioxygenase (TPADO; TphA2/TphA3) (Comamonas sp., UniProt Q3C1D5); assay: HPLC end point, NADH and analog consumption; type: biochemical; settings: uncoupler, not oxygenated; 90 min in air, limiting NADH, with TphA1 reductase
T1 construct: gene tphA2II; alpha with C-terminal His6, coexpressed with beta from pET-DUET in E. coli; alpha3beta3 heterohexamer, 196 kDa; Rieske [2Fe-2S] and mononuclear Fe(II); with Terephthalate 1,2-dioxygenase, terminal oxygenase component subunit beta

TPADO reductase (TphA1) = target: T2, TPADO reductase (TphA1) (Comamonas sp., UniProt Q3C1E0); assay: HPLC of TPADO/reductase reaction; type: biochemical; settings: electron donor in the coupled system with TPADO and TPA; NADPH not used
T2 construct: gene tphA1I; C-terminal His6, expressed in E. coli; plant-type [2Fe-2S], flavin

[2] = substrate: O=C(O)c1ccc(C(=O)O)cc1; assay: steady-state kinetics, Michaelis-Menten fit; type: biochemical, Comamonas sp.; settings: ambient air (O2 not shown saturating), NADH, with TphA1 reductase

T2 sequence (Q3C1E0 whole entry): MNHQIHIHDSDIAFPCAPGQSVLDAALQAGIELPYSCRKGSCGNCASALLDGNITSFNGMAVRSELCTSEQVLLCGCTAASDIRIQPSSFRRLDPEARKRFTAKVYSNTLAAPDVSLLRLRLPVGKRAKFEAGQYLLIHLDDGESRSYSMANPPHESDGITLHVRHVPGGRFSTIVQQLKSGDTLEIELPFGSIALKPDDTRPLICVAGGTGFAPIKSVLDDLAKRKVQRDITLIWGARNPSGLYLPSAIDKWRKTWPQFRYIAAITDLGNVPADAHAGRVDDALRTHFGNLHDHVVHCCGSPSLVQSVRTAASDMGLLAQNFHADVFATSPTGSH
T1 sequence (Q3C1E2 whole entry, one chain of several, further chain): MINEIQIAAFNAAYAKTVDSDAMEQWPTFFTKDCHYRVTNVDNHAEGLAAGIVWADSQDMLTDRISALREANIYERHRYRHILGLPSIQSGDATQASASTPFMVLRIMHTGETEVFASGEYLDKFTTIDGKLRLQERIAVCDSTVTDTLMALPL

% NADH consumption [1]: 100%
Molecule: O=C(O)c1ccc([N+](=O)[O-])cc1 [4-NBA, 4-nitrobenzoic acid]

Molecule: NC(=O)C1=CN([C@@H]2O[C@H](COP(=O)(O)OP(=O)(O)OC[C@H]3O[C@@H](n4cnc5c(N)ncnc54)[C@H](O)[C@@H]3O)[C@@H](O)[C@H]2O)C=CC1 [NADH]
HPLC of TPADO/reductase reaction (TPADO reductase (TphA1)): specifically in the presence of nicotinamide adenine dinucleotide hydride (NADH) rather than its phosphorylated analog

B1: terephthalate dioxygenase (TPADO; TphA2/TphA3) (Comamonas sp.) (protein)
chain: MQESIIQWHGATNTRVPFGIYTDTANADQEQQRIYRGEVWNYLCLESEIPGAGDFRTTFAGETPIVVVRDADQEIYAFENRCAHRGALIALEKSGRTDSFQCVYHAWSYNRQGDLTGVAFEKGVKGQGGMPASFCKEEHGPRKLRVAVFCGLVFGSFSEDVPSIEDYLGPEICERIERVLHKPVEVIGRFTQKLPNNWKLYFENVKDSYHASLLHMFFTTFELNRLSQKGGVIVDESGGHHVSYSMIDRGAKDDSYKDQAIRSDNERYRLKDPSLLEGFEEFEDGVTLQILSVFPGFVLQQIQNSIAVRQLLPKSISSSELNWTYLGYADDSAEQRKVRLKQANLIGPAGFISMEDGAVGGFVQRGIAGAANLDAVIEMGGDHEGSSEGRATETSVRGFWKAYRKHMGQEMQA
notes: alpha with C-terminal His6, coexpressed with beta from pET-DUET in E. coli; alpha3beta3 heterohexamer, 196 kDa; Rieske [2Fe-2S] and mononuclear Fe(II); with Terephthalate 1,2-dioxygenase, terminal oxygenase component subunit beta
Km [2]: 9.6 ± 1 µM | kcat [2]: 0.2 ± 0.005 s⁻¹
